In the NIST ThermoML archive (doi:10.1021/je034253u):

Experiment: excess molar enthalpy (molar enthalpy of mixing); xn = mol fraction of the nth substance listed
Settings: Liquid, Flow calorimetry

CC1CO1 (stereo not drawn) [methyloxirane] + CCCC(C)C
323.15 K, 1140 kPa
Settings | excess molar enthalpy [kcal/mol]
x1 = 0.0895 | 0.0966
x1 = 0.1719 | 0.1678
x1 = 0.2479 | 0.2199
x1 = 0.3184 | 0.2548
x1 = 0.3838 | 0.2782
x1 = 0.4447 | 0.2909
x1 = 0.5015 | 0.2964
x1 = 0.5547 | 0.2945
x1 = 0.6045 | 0.2873
x1 = 0.6514 | 0.2763
x1 = 0.6954 | 0.2591
x1 = 0.737 | 0.2397
x1 = 0.7763 | 0.2177
x1 = 0.8134 | 0.1924
x1 = 0.8486 | 0.165
x1 = 0.882 | 0.135
x1 = 0.9137 | 0.103
x1 = 0.9439 | 0.0691
x1 = 0.9726 | 0.0332

FC(F)C(F)(F)F [pentafluoroethane] + FCF
308.15 K, 5130 kPa
Settings | excess molar enthalpy [kcal/mol]
x2 = 0.088 | 0.00598
x2 = 0.1692 | 0.012
x2 = 0.2444 | 0.0174
x2 = 0.3142 | 0.0227
x2 = 0.3792 | 0.0272
x2 = 0.4399 | 0.0308
x2 = 0.4967 | 0.0337
x2 = 0.5499 | 0.0359
x2 = 0.5999 | 0.037
x2 = 0.647 | 0.0375
x2 = 0.6913 | 0.037
x2 = 0.7332 | 0.0359
x2 = 0.7729 | 0.0339
x2 = 0.8105 | 0.0311
x2 = 0.8461 | 0.0275
x2 = 0.88 | 0.0232
x2 = 0.9122 | 0.0182
x2 = 0.9428 | 0.0124
x2 = 0.9721 | 0.00621
